29 compounds from US8796460B2, “Compounds for inhibiting KSP kinesin activity” (Mercky Sharp & Dohme Corp., priority 2007, dated 2014) can be followed below.

The first experiment has as its system HCT116 colon cancer cells. Description: KSP Cellular Assay (percent of cells staining positive for Phos-Histone H3 / Phos-MPM2). The note with it: Homo sapiens, HCT-116, 16 h, Table 101; HCT116 cells, 16 hours with drug; read-out: ED50 (nM) Range. The experiment is classed as cell-based. As to the method:
HCT116 colon cancer cells were grown in DMEM:F12 media with 10% heat inactivated FBS at 37 degrees with 5% CO2. Cells were plated at 7,500 cells per well in PDL coated 384-well tissue culture plates. 6 hours later media was removed and new media containing drug was added. Cells were incubated with drug for 16 hours. All further steps were performed at room temperature in the dark. Cells were fixed with 25 ul/well Prefer fixation solution plus 250 nM Hoechst dye and incubated for 30 minutes. The fixation solution was removed and cells were washed with PBS. Cells were then permeabilized with 25 ul/well 0.2% Triton-X in PBS and incubated for 10 minutes. Cells were washed with PBS and then incubated with 25 ul/well PBS containing 3% FBS for 30 minutes. Cells were then stained overnight at 4 degrees with 25 ul/well antibody solution in PBS plus 3% FBS. Antibodies used were Phos-Histone H3 (ser10)-Alexa Flur 488 Conjugate and Phos-MPM2 Texas Red Conjugate. Cells were washed with PBS and then immunofluorescence images captured with HT Pathway microscope. The percent of cells staining positive was calculated and EC50 values for the compounds of the invention that were tested were determined using Excel XLfit.
EC50 Determinations: Dose-response curves were plotted from inhibition data generated each in duplicate, from 8 point serial dilutions of inhibitory compounds. Concentration of compound was plotted against enzyme activity (OD reading). To generate EC50 values, the dose-response curves were then fitted to a standard sigmoidal curve and EC50 values were derived by nonlinear regression analysis.
For `CC(=O)N1N=C(c2cc(F)ccc2F)SC12CCSc1ccccc12` (centres unmarked) [compound 104], the EC50 is more than 1000 nM.

The same experiment, now with this note: Homo sapiens, HCT-116, 16 h, Table 401; HCT116 cells, 16 hours with drug; read-out: ED50 (nM) Range.
On to `O=C(c1ccncc1)N1N=C(c2cc(F)ccc2F)SC12CCOc1ccccc12` (centres unmarked) [compound 474], for which the EC50 was more than 1000 nM.

For the compound `O=C(C1CCCNC1)N1N=C(c2cc(F)ccc2F)SC12CCCc1ccsc12` (centres unmarked) [compound 426], the EC50 was more than 1000 nM.

In the case of `N[C@H]1C[C@@H](C(=O)N2N=C(c3cc(F)ccc3F)SC23CCOc2ccccc23)C1` (some centres unmarked) [compound 499], the EC50 fell in the range of 500 to 1000 nM.

For the compound `O=C(CC1CNC1)N1N=C(c2cc(F)ccc2F)SC12CCOc1ccccc12` (centres unmarked) [compound 491], the EC50 was in the range of 500 to 1000 nM.

Regarding `O=C(CCC1CCNCC1)N1N=C(c2cc(F)ccc2F)SC12CCc1ccccc12` (centres unmarked) [compound 462], the EC50 was not above 500 nM.

Regarding `NCCCC(=O)N1N=C(c2cc(F)ccc2F)S[C@]12CCOc1ccccc12` [compound 458], the EC50 is not above 500 nM.

Regarding `O=C(CCC1CCCCN1)N1N=C(c2cc(F)ccc2F)SC12CCOc1ccccc12` (centres unmarked) [compound 497], the EC50 was in the range of 500 to 1000 nM.

On to `O=C(CC1CCNCC1)N1N=C(c2cc(F)ccc2F)SC12CCOc1ccccc12` (centres unmarked) [compound 486], for which the EC50 was 500 to 1000 nM.

Regarding `NC1CCC(C(=O)N2N=C(c3cc(F)ccc3F)SC23CCc2ccccc23)C1` (centres unmarked) [compound 440], the EC50 was not above 500 nM.

`O=C(CC1CCNC1)N1N=C(c2cc(F)ccc2F)SC12CCc1ccccc12` (centres unmarked) [compound 451]: the EC50 was not above 500 nM.

As to `N[C@@H]1CC[C@@H](C(=O)N2N=C(c3cc(F)ccc3F)SC23CCOc2ccccc23)C1` (some centres unmarked) [compound 478], the EC50 was more than 500 nM.

As to `N[C@H](C(=O)N1N=C(c2cc(F)ccc2F)SC12CCc1ccccc12)C1CC1` (some centres unmarked) [compound 420], the EC50 is more than 1000 nM.

With `CC(N)CCC(=O)N1N=C(c2cc(F)ccc2F)SC12CCc1ccccc12` (centres unmarked) [compound 452], the EC50 was not above 500 nM.

For `O=C(CC1CCNC1)N1N=C(c2cc(F)ccc2F)SC12CCOc1ccccc12` (centres unmarked) [compound 496], the EC50 is not above 500 nM.

For the compound `CN(C)CCCC(=O)N1N=C(c2cc(F)ccc2F)SC12CCc1ccccc12` (centres unmarked) [compound 438], the EC50 was not above 500 nM.

For the compound `NC1CCC(C(=O)N2N=C(c3cc(F)ccc3F)SC23CCc2ccccc23)CC1` (centres unmarked) [compound 439], the EC50 fell in the range of 500 to 1000 nM.

As to `O=C(CC1CCCNC1)N1N=C(c2cc(F)ccc2F)SC12CCOc1ccccc12` (centres unmarked) [compound 483], the EC50 was in the range of 500 to 1000 nM.

Still in this experiment, the particulars now being: Homo sapiens, HCT-116, 16 h, table of Example 901; HCT116 cells, 16 hours with drug; read-out: EC50 (nM) Range.
`CC(=O)N1N=C(c2cc(F)ccc2F)S[C@@]12c1ccccc1OC[C@H]2CC#N` [compound 903]: the EC50 is not above 500 nM.

Take `CC(=O)N1N=C(c2cc(F)ccc2F)S[C@]12c1ccccc1OC[C@@H]2CC#N` [compound 905]: the EC50 was more than 1000 nM.

Staying with this experiment, now noted: Homo sapiens, HCT-116, 16 h, table of Example 1801 (headed Table 1201); HCT116 cells, 16 hours with drug; read-out: EC50 (nM) Range.
Regarding `CC(=O)N1N=C(c2cccc(C(F)(F)F)c2)S[C@@]12c1ccccc1OC[C@H]2CCN` [compound 1814], the EC50 is not above 500 nM.

For the compound `CC(=O)N1N=C(c2cc(Cl)ccc2F)S[C@@]12c1ccccc1OC[C@H]2CCN` [compound 1803], the EC50 was not above 500 nM.

Regarding `CC(=O)N1N=C(c2cccc(Cl)c2)S[C@]12c1ccccc1OC[C@@H]2CCN` [compound 1813], the EC50 was more than 1000 nM.

`CC(=O)N1N=C(c2ccc(F)c(F)c2)S[C@]12c1cc(F)ccc1OC[C@@H]2CCN` [compound 1823]: the EC50 is more than 1000 nM.

As to `CC(=O)N1N=C(c2cc(F)cc(F)c2)S[C@@]12c1cc(F)ccc1OC[C@H]2CCN` [compound 1821], the EC50 is not above 500 nM.

The experiment is the same for the next values; noted with them: Homo sapiens, HCT-116, 16 h, table of Example 2001; HCT116 cells, 16 hours with drug; read-out: EC50 (nM) Range.
As for `CO[C@@H](C)C(=O)N1N=C(c2cc(F)ccc2F)S[C@]12c1ccccc1OC[C@@H]2CCN` [compound 2007], the EC50 was not above 500 nM.

The same experiment, now with this note: Homo sapiens, HCT-116, 16 h, table of Example 2301; HCT116 cells, 16 hours with drug; read-out: EC50 (nM) Range.
Take `CC(=O)N1N=C(c2cc(F)ccc2F)SC12c1ccccc1OCC2CCO` (centres unmarked) [compound 2301]: the EC50 is not above 500 nM.

Still in this experiment, the particulars now being: Homo sapiens, HCT-116, 16 h, table of Example 2701; HCT116 cells, 16 hours with drug; read-out: EC50 (nM) Range.
In the case of `CC(=O)NCC[C@H]1CNc2ccccc2[C@]12SC(c1cc(F)ccc1F)=NN2C(C)=O` [compound 2702], the EC50 was 500 to 1000 nM.

The experiment is the same for the next values; noted with them: Homo sapiens, HCT-116, 16 h, table of Example 2901; HCT116 cells, 16 hours with drug; read-out: EC50 (nM) Range.
In the case of `CC(=O)N1N=C(c2cc(F)ccc2F)S[C@@]12c1cc(F)ccc1NC[C@H]2CCN` [compound 2902], the EC50 is not above 500 nM.
